Measurements from the supplement of paper PMC11451515.

Tested on: SEM cells
Assay: cell viability relative to DMSO control; higher = less cytotoxic
Settings: 48 h
Summary of the method: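 Viability is a per-plate percentage relative to DMSO wells, with cell-free wells as background. CellTiter-Glo One luminescence was read after 48 h at 37°C on 1536-well plates (5 μl) of NOMO1 or SEM (500 cells/well) or P12-Ichikawa (1000 cells/well) leukemia cells. The cells had been adapted for at least four passages in each medium and pin-dosed with library compounds in DMSO from 47 μM to 0.79 nM in 11 threefold steps.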

[1] = HPLM + 10% dialyzed FBS, 0.000781 µM
[2] = HPLM + 10% dialyzed FBS, 0.00234 µM
[3] = HPLM + 10% dialyzed FBS, 0.00702 µM
[4] = HPLM + 10% dialyzed FBS, 0.0211 µM
[5] = HPLM + 10% dialyzed FBS, 0.0632 µM
[6] = HPLM + 10% dialyzed FBS, 0.19 µM
[7] = HPLM + 10% dialyzed FBS, 0.569 µM
[8] = HPLM + 10% dialyzed FBS, 1.71 µM
[9] = HPLM + 10% dialyzed FBS, 5.12 µM
[10] = HPLM + 10% dialyzed FBS, 15.4 µM
[11] = HPLM + 10% dialyzed FBS, 46.1 µM
[12] = RPMI 5 mM glucose + 10% FBS, 0.000781 µM
[13] = RPMI 5 mM glucose + 10% FBS, 0.00234 µM
[14] = RPMI 5 mM glucose + 10% FBS, 0.00702 µM
[15] = RPMI 5 mM glucose + 10% FBS, 0.0211 µM
[16] = RPMI 5 mM glucose + 10% FBS, 0.0632 µM
[17] = RPMI 5 mM glucose + 10% FBS, 0.19 µM
[18] = RPMI 5 mM glucose + 10% FBS, 0.569 µM
[19] = RPMI 5 mM glucose + 10% FBS, 1.71 µM
[20] = RPMI 5 mM glucose + 10% FBS, 5.12 µM
[21] = RPMI 5 mM glucose + 10% FBS, 15.4 µM
[22] = RPMI 5 mM glucose + 10% FBS, 46.1 µM
[23] = RPMI 5 mM glucose + 10% dialyzed FBS, 0.000781 µM
[24] = RPMI 5 mM glucose + 10% dialyzed FBS, 0.00234 µM
[25] = RPMI 5 mM glucose + 10% dialyzed FBS, 0.00702 µM
[26] = RPMI 5 mM glucose + 10% dialyzed FBS, 0.0211 µM
[27] = RPMI 5 mM glucose + 10% dialyzed FBS, 0.0632 µM
[28] = RPMI 5 mM glucose + 10% dialyzed FBS, 0.19 µM
[29] = RPMI 5 mM glucose + 10% dialyzed FBS, 0.569 µM
[30] = RPMI 5 mM glucose + 10% dialyzed FBS, 1.71 µM
[31] = RPMI 5 mM glucose + 10% dialyzed FBS, 5.12 µM
[32] = RPMI 5 mM glucose + 10% dialyzed FBS, 15.4 µM
[33] = RPMI 5 mM glucose + 10% dialyzed FBS, 46.1 µM

Row | SMILES | cell viability [1] [%] | cell viability [2] [%] | cell viability [3] [%] | cell viability [4] [%] | cell viability [5] [%] | cell viability [6] [%] | cell viability [7] [%] | cell viability [8] [%] | cell viability [9] [%] | cell viability [10] [%] | cell viability [11] [%] | cell viability [12] [%] | cell viability [13] [%] | cell viability [14] [%] | cell viability [15] [%] | cell viability [16] [%] | cell viability [17] [%] | cell viability [18] [%] | cell viability [19] [%] | cell viability [20] [%] | cell viability [21] [%] | cell viability [22] [%] | cell viability [23] [%] | cell viability [24] [%] | cell viability [25] [%] | cell viability [26] [%] | cell viability [27] [%] | cell viability [28] [%] | cell viability [29] [%] | cell viability [30] [%] | cell viability [31] [%] | cell viability [32] [%] | cell viability [33] [%]
1 | CCNC(=O)Nc1ccc(Oc2ncnc(N)c2/C=N/OC)cc1Cl | 96.9 | 100 | 99.8 | 105 | 110 | 112 | 117 | 73.5 | 78.5 | 68.1 | 83.1 | 75.3 | 84.1 | 75.5 | 78.7 | 74.9 | 79.5 | 70.5 | 37.4 | 70 | 44.8 | 56.8 | 99.5 | 103 | 111 | 111 | 108 | 117 | 111 | 55.9 | 75.4 | 56 | 74.7
2 | CCNC(=O)CCC/C=C\C[C@@H]1[C@@H](/C=C/C(O)CCc2ccccc2)[C@@H](O)C[C@@H]1O (some centres undefined) | 96.2 | 116 | 100 | 98.8 | 115 | 104 | 104 | 108 | 108 | 91.2 | 87.4 | 95.4 | 112 | 110 | 98.7 | 118 | 111 | 117 | 118 | 111 | 98.2 | 100 | 89.6 | 117 | 128 | 107 | 120 | 109 | 102 | 106 | 114 | 107 | 81.3
3 | COc1cc(NCc2ccc3nc(N)nc(N)c3c2C)cc(OC)c1OC | 78.1 | 89.2 | 91.1 | 100 | 99.6 | 104 | 99.7 | 38.1 | 40.3 | 32.5 | 12.1 | 69.1 | 94.4 | 84.9 | 84.9 | 96.8 | 93.2 | 96.8 | 24.4 | 98.4 | 72.5 | 3.26 | 74.5 | 89.3 | 88.6 | 82.3 | 94.4 | 94.8 | 102 | 23.9 | 62.9 | 35.7 | 3.29
4 | Oc1ccc(OCc2ccccc2)cc1 | 89.8 | 106 | 98.9 | 113 | 20.8 | 103 | 106 | 97.1 | 92.5 | 47.7 | 28.7 | 103 | 106 | 108 | 110 | 13.6 | 113 | 114 | 104 | 77.6 | 58.3 | 31.6 | 112 | 114 | 130 | 119 | 47.4 | 109 | 126 | 109 | 98.9 | 69.2 | 30.3
5 | COc1ccccc1[C@H](c1cccc2ccccc12)[C@@](C)(C#N)C(=O)N1CCC(c2cccc(C(F)(F)F)c2)CC1 | 87.3 | 103 | 96.6 | 97.4 | 107 | 103 | 108 | 99.2 | 89.3 | 54.4 | 39.7 | 92.3 | 104 | 102 | 107 | 102 | 114 | 105 | 119 | 111 | 84.7 | 56 | 83.3 | 91.5 | 100 | 99.4 | 90.8 | 104 | 102 | 87.8 | 93.9 | 76.6 | 54.9
6 | CO[C@H]1/C=C/O[C@@]2(C)Oc3c(C)c(O)c4c(c3C2=O)C2=NC3(CCN(CC(C)C)CC3)NC2=C(NC(=O)/C(C)=C/C=C/[C@H](C)[C@H](O)[C@@H](C)[C@@H](O)[C@@H](C)[C@H](OC(C)=O)[C@@H]1C)C4=O | 92.6 | 80.4 | 103 | 109 | 122 | 118 | 123 | 17.8 | 122 | 108 | 105 | 116 | 114 | 133 | 133 | 153 | 144 | 135 | 10.7 | 152 | 125 | 113 | 110 | 100 | 118 | 117 | 135 | 122 | 130 | 26.7 | 123 | 93 | 99.1
7 | C=CC(=O)Nc1cc2c(Nc3ccc(F)c(Cl)c3)ncnc2cc1C#CC(C)(C)N1CCN(C)CC1 | 99.3 | 107 | 108 | 114 | 106 | 104 | 92.3 | 87.1 | 17.3 | 4.78 | 2.96 | 112 | 116 | 112 | 118 | 105 | 138 | 103 | 87.7 | 22.2 | 4.92 | 4.19 | 102 | 104 | 95.8 | 97 | 102 | 106 | 107 | 87.7 | 19.3 | 4.98 | 3.49
8 | CN1C(=O)c2sccc2N(C)c2nc(Nc3ccc([S+](N)(=O)[O-])cc3)ncc21 | 94.1 | 93.2 | 103 | 102 | 89.2 | 99.6 | 88.7 | 67.8 | 21.9 | 9.56 | 3.55 |  |  |  |  |  |  |  |  |  |  |  | 112 | 101 | 106 | 105 | 95.6 | 91.4 | 93.7 | 63.6 | 14.8 | 8.42 | 4.39
9 | COc1ccc(CCC(=O)c2c(O)cc(O[C@@H]3O[C@H](CO)[C@@H](O)[C@H](O)[C@H]3O[C@@H]3O[C@@H](C)[C@H](O)[C@@H](O)[C@H]3O)cc2O)cc1O | 112 | 115 | 120 | 128 | 128 | 119 | 128 | 119 | 134 | 124 | 116 |  |  |  |  |  |  |  |  |  |  |  |  |  |  |  |  |  |  |  |  |  | 
10 | CC(C)C1CCC(C(=O)N[C@H](Cc2ccccc2)C(=O)O)CC1 (some centres undefined) | 92.5 | 93.8 | 91.7 | 108 | 71.1 | 26.3 | 82.7 | 97.6 | 85.2 | 80.3 | 78.5 | 108 | 94.1 | 90 | 112 | 80.9 | 21.2 | 62.7 | 85.6 | 98 | 95.4 | 77.8 | 108 | 104 | 103 | 102 | 75.4 | 21.7 | 84.3 | 88.7 | 98.5 | 93.1 | 96.8
11 | CC(C)(N)C(=O)N[C@H](COCc1ccccc1)C(=O)N1CCC2(CC1)CN([S+](C)(=O)[O-])c1ccccc12 |  |  |  |  |  |  |  |  |  |  |  | 124 | 127 | 122 | 155 | 130 | 130 | 139 | 121 | 114 | 91.9 | 36.8 |  |  |  |  |  |  |  |  |  |  | 
12 | O=C(O)CCCCCC(=O)NN=C1CCCC1 | 88.6 | 100 | 99.5 | 104 | 119 | 114 | 114 | 117 | 119 | 110 | 104 | 89.8 | 99.3 | 106 | 104 | 96.1 | 104 | 114 | 113 | 100 | 108 | 93.2 | 100 | 99.2 | 111 | 119 | 120 | 101 | 111 | 128 | 117 | 127 | 110
13 | N[S+](=O)([O-])c1ccc(Nc2nc(OCC3CCCCC3)c3[nH]cnc3n2)cc1 | 103 | 117 | 106 | 113 | 101 | 115 | 43 | 24 | 23.8 | 16.4 | 3.57 |  |  |  |  |  |  |  |  |  |  |  | 109 | 134 | 114 | 120 | 112 | 109 | 49.6 | 21 | 21.2 | 14.4 | 2.04
14 | NC(=O)c1cccc(-c2cc(Nc3ccc(OC(F)(F)F)cc3)ncn2)c1 | 82.4 | 92.7 | 95.5 | 91.9 | 87.2 | 111 | 101 | 106 | 87.8 | 82 | 69.3 | 105 | 116 | 106 | 111 | 104 | 117 | 112 | 111 | 113 | 101 | 69.1 | 80 | 91.6 | 96.5 | 91.8 | 95 | 98.2 | 96.1 | 104 | 84.8 | 68.9 | 54.1
15 | COc1c(Cl)cc2c([nH]c3cnccc32)c1NC(=O)c1cccnc1C | 100 | 116 | 119 | 92 | 114 | 103 | 118 | 108 | 107 | 103 | 84.8 |  |  |  |  |  |  |  |  |  |  |  | 93.6 | 95.3 | 108 | 97.5 | 110 | 107 | 101 | 125 | 106 | 105 | 90.1
16 | Nc1nc(F)nc2c1ncn2[C@@H]1O[C@H](COP(=O)(O)O)[C@@H](O)[C@@H]1O | 107 | 123 | 117 | 113 | 128 | 117 | 123 | 56.3 | 35.7 | 16.6 | 8.32 | 107 | 130 | 116 | 92.1 | 114 | 123 | 128 | 73.1 | 93.7 | 19.7 | 11.1 | 103 | 126 | 110 | 98.2 | 134 | 114 | 105 | 52.9 | 46.3 | 18 | 9.23
17 | CN1CCc2c(c3ccccc3n2Cc2ccc(C(=O)NO)cc2)C1 | 81.4 | 76.1 | 79.7 | 95.4 | 84.2 | 79.2 | 70.7 | 83.9 | 88.3 | 25.2 | 11.7 | 87.3 | 78.9 | 88.5 | 92.9 | 84.8 | 78 | 57.5 | 97.3 | 88.3 | 38.6 | 26.2 | 76.7 | 60.4 | 67 | 78.4 | 69.5 | 61.2 | 58.1 | 77.2 | 94.6 | 32 | 22.6
